This is an account of results in ChEMBL document CHEMBL1201862, “PubChem BioAssay data set” (2004).

Calls of active or inactive are those of the source.

The nature of experiment [1]: inhibitors of intracellular T. cruzi replication, confirmation, NIH3T3 host cells, beta-gal luminescence (AID 2044).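 Also: intracellular parasites grown in NIH/3T3 mouse fibroblasts as host cells; luminescent beta-galactosidase reporter signal from transgenic T. cruzi replicating inside host cells; inhibitors lower the luminescence signal.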 It counts as functional, cell-based.
A short description of experiment [2]: cytotoxicity toward NIH3T3 fibroblasts, dose response, counter-screen, cell-based, ATP luminescence, mouse fibroblasts (AID 2010).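 Also: cells exposed to compound for about 90 hours before reading.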 It counts as functional.
Experiment [3] deals with DNA damage-inducible transcript 3 protein (Mus musculus, UniProt P35639). It counts as functional, Cricetulus griseus.
Chain of DNA damage-inducible transcript 3 protein (P35639 whole entry): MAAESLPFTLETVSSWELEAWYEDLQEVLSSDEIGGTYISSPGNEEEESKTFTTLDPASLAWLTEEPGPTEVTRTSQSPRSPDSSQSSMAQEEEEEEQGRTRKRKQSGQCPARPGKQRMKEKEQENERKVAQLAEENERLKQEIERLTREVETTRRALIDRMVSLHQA
The nature of experiment [4]: A Cell Based Secondary Assay To Explore Cytotoxicity of Compounds that Sensitize Mycobacterium Tuberculosis to Beta-Lactam Antibiotics. It counts as functional.
Experiment [5] has as its target T1, Rac GTPase-activating protein 1 (Homo sapiens, UniProt Q9H0H5).
T1 sequence (Q9H0H5 whole entry): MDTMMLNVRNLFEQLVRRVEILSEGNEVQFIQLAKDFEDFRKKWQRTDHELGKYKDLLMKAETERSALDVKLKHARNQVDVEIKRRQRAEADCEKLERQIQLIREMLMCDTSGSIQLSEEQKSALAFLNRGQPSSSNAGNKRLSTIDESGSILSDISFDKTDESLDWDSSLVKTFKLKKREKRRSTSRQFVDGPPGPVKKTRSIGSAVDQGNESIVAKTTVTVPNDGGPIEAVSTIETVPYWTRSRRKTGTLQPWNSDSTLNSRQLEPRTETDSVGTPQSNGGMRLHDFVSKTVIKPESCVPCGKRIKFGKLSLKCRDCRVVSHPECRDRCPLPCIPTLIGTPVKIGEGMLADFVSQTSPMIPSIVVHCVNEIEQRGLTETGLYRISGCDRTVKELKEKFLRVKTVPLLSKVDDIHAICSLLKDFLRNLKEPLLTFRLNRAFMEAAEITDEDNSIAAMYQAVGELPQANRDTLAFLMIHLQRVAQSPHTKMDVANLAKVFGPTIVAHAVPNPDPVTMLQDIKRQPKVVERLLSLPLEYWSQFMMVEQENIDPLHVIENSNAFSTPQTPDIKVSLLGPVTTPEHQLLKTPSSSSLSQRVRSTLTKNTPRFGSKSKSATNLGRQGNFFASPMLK
In words: MgcRacGAP GTPase-activating activity inhibitors, confirmation, biochemical, ADP Hunter fluorescence, primary and confirmatory (AID 624330). It counts as functional.

Another experiment deals with T2, Bcl-2-related protein A1 (Mus musculus, UniProt Q07440).
T2 sequence (Q07440 whole entry): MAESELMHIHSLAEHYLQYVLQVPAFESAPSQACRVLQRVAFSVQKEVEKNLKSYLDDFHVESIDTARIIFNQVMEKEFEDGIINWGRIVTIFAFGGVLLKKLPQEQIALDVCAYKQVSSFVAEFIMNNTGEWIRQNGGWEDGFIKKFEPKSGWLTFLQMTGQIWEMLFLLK
It is filed as functional.

Experiment [6] deals with T3, Ubiquitin-conjugating enzyme E2 N (Homo sapiens, UniProt P61088).
T3 sequence (P61088 whole entry): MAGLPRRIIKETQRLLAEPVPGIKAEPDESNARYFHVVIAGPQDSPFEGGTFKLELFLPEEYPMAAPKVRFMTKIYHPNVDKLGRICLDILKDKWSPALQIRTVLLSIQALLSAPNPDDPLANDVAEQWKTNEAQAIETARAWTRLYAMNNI
It counts as functional.

Experiment [7] deals with T4, Microphthalmia-associated transcription factor (Homo sapiens, UniProt O75030).
T4 sequence (O75030 whole entry): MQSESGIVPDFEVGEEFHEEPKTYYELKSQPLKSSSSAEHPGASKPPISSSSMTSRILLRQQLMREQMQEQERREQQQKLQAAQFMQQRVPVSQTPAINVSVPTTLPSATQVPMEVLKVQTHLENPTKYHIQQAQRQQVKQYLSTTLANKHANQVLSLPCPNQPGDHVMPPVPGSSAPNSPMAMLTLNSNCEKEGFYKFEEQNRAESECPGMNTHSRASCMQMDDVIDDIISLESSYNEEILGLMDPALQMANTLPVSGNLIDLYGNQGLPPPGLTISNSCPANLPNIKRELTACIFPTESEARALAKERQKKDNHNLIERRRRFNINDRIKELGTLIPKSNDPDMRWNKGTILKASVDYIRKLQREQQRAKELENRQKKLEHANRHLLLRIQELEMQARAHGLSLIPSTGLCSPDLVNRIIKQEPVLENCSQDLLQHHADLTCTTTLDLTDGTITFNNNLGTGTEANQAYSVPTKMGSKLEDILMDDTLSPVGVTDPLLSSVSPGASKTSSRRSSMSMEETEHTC
In words: TRPM1 promoter luciferase signal decrease, dose response, MITF inhibitor project, cell-based, SK-MEL-5, cherry-picked, set 3 (AID 493073).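 Also: SK-MEL-5 melanoma cells with luciferase driven by the MITF target TRPM1 promoter.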 It is filed as functional.

For a further experiment, the system named is H4. In words: Luminescence Cell-Based Dose Response HTS to Identify Activators of 5'UTR Stem-Loop Driven Prion Protein mRNA Translation in H4 Neuroglioblastoma Cells. [Related pubchem assays: 1829 (Project Summary), 1814 (Primary HTS)]. It is filed as functional. To be noted: Homo sapiens.
Experiment [8] can be described thus: Luminescence Cell-Based Dose Confirmation HTS to Identify Activators of 5'UTR Stem-Loop Driven Alpha-Synuclein mRNA Translation in H4 Neuroglioblastoma Cells. [Related pubchem assays: 1829 (Project Summary), 1814 (Primary HTS)]. It counts as functional.
Experiment [9] in a line: Luminescence Cell-Based Dose Response HTS to Identify Activators of Luciferase Translation or Activity in H4 […] Cells. [Related pubchem assays: 1829 (Project Summary), 1814 (Primary HTS)]. It counts as functional.
Experiment [10] is described as follows: THP-1 cell cytotoxicity, dose response, cytotoxicity control for non-replicating M. tuberculosis project (AID 489025). It counts as functional.
Experiment [11] is described as follows: cells. It counts as functional.
A short description of experiment [12]: cells. It is filed as functional, cell-based.
The subject of a further experiment is INS1. In words: beta cell apoptosis inhibitors, cytokine rescue, dose response, luminescence, retest (AID 449756).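 Also: cell death triggered by IL-1 beta plus TNF-alpha plus IFN-gamma mixture; protective hits raise ATP signal compared with cytokine alone wells.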 It counts as functional, cell-based. To be noted: Rattus norvegicus, INS1.
A short description of experiment [13]: cells. It counts as functional, cell-based. The source holds these as a separate data set.
Another experiment concerns the target T5, Streptokinase A (Streptococcus pyogenes serotype M1, UniProt P10520).
T5 sequence (P10520 whole entry): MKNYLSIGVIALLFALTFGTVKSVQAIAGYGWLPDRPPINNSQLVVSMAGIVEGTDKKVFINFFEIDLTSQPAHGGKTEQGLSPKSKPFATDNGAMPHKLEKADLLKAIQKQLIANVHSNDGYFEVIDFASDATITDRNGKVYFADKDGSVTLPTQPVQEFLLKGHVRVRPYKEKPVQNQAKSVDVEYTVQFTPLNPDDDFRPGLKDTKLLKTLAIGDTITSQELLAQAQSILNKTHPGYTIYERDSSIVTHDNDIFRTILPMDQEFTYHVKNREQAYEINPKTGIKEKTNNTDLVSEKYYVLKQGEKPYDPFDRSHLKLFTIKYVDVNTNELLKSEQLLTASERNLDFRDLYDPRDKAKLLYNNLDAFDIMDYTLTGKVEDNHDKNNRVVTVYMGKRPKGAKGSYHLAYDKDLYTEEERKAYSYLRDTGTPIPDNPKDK
In words: S. pyogenes streptokinase expression inhibitors, potency, dose response, plasminogen activation absorbance, OD405 (AID 1914).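 Also: secreted streptokinase activity via plasminogen activation per viability signal from cell pellet.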 It is filed as functional, Streptococcus pyogenes M1 GAS.

Experiment [14] in a line: microbe, parasite or virus in culture. To be noted: Mycobacterium tuberculosis. It counts as functional.
Experiment [15] has as its system Streptococcus sp. 'group A'. In words: growth inhibition of control SK(-) GAS strain, dose response, counter-screen for streptokinase expression inhibitor project, luminescence, kanamycin, BacTiterGlo, confirmation (AID 1900). It is filed as functional, organism-based.
A further experiment relates to Streptococcus. Description: Group A Streptococcus viability loss, dose response, counter-screen for streptokinase expression inhibitor project, luminescence, BacTiterGlo (AID 1915).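 Also: potency for reduction of bacterial viability or growth.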 It is filed as functional, organism-based.
Experiment [16] in a line: Luminescence-based counterscreen assay for KLF5 inhibitors: dose response cell-based high throughput screening assay to identify cytotoxic compounds using the IEC-6 intestinal epithelial cell line. [Related pubchem assays: 1700 (Primary screen.), 1834 (Confirmation screen.), 1858 (Summary AID.), 1905 (Counterscreen.)]. It is filed as functional.

Turning to `CCOc1ccc2nc(NC(=O)CSc3nnnn3C3CCCCC3)sc2c1`, the EC50 in [1] was 2.14 µM (active); in experiment [2], > 30 µM (not active). Moreover, the “Absolute IC50 (CHOP)” value in [3] came out at 10 µM.

`CCO[C@H]1OC(C(=O)NCc2nc3ccccc3[nH]2)=C[C@@H](c2ccc(C(F)(F)F)cc2)[C@@H]1CCCO`: in experiment [4], the CC50 is > 40 µM (active).

For the compound `C#CCOCCOCCOCCNc1nc(N2CCN(C(=O)C([C@@H](C)O)n3cc([C@@H](N)CCCCN)nn3)CC2)nc(N2CCN(C(=O)[C@H](CCCCN)n3cc(CN)nn3)CC2)n1` (stereo partly specified), the values for the IC50 (in [5]; at Bcl-2-related protein A1; in experiment [6]) were 171 µM (active), > 20 µM (inactive) and 3.7 µM (active), respectively.

With `COc1ccc(NC(C)C(=O)N/N=C/c2ccc([N+](=O)[O-])s2)cc1` (stereo unspecified), in experiment [4], the CC50 is 21.8 µM (active). For the same compound, the half-maximal effective concentration (EC50) in experiment [1] was 0.414 µM (active); in experiment [2], > 60 µM (inconclusive). The AC50 in experiment [7] was 15.8 µM (active).

As for `CCOC(=O)c1sc2ccccc2c1NC(=O)c1coc2ccccc2c1=O`, the EC50 is > 120 µM (not active) with H4, > 120 µM (not active) in experiment [8] and 16.9 µM (active) in [9]. Moreover, in [4], the CC50 is > 40 µM (active).

As for `CCc1ccc(N2NC(=O)/C(=C/C=C/c3ccco3)C2=O)cc1`, the EC50 with H4 was 14.3 µM (active); in experiment [8] it was 14.8 µM (active); in experiment [9] it was 48 µM (active). In experiment [10], the CC50 was > 40 µM (active). Further, the IC50 in the experiment “cells [11]” was 12.1 µM (active).

`O=C(NCc1cccs1)c1cc(-c2ccccc2)nc2ccccc12`: the CC50 in [4] is > 40 µM (active).

As for `COc1cccc(CN2CCC(N(CCc3ccccc3)Cc3ccccc3)CC2)c1OC`, the EC50 in the experiment “cells [12]” and in “cells [13]” was > 350 µM (not active) each time. Also, the AC50 in the experiment on INS1 is 11.4 µM (active). Also, the CC50 in experiment [10] is > 40 µM (active). For the same compound, the IC50 in “cells [11]” was 25.2 µM (active).

With `Cc1cc(N2CCC(C)CC2)nc(-n2nc(C)cc2C)n1`, the CC50 in [10] and in experiment [14] was > 40 µM (active) throughout. Moreover, the EC50 on Streptokinase A is > 150 µM (not active); in [15], 7.26 µM (active); in the experiment with Streptococcus, > 150 µM (not active). Also, in the experiment “cells [11]”, the IC50 was 0.15 µM (active).

For `Cn1cccc1-c1cc(C(=O)N/N=C/c2cc(Br)ccc2O)[nH]n1`, the EC50 is > 350 µM (not active) in “cells [12]” and 8.69 µM (active) in the experiment “cells [13]”. Further, the IC50 in experiment [16] is on record as 13.4 µM (not active). In addition, the AC50 in [7] is 5.25 µM (active).
